The values below come from publication PMC4070910, “Cathepsin S Signals via PAR2 and Generates a Novel Tethered Ligand Receptor Agonist” (PLoS ONE, 2014).

For assay [1], the system named is cathepsin S in keratinocytes. Particulars: cited from earlier work. An excerpt: We have identified a new peptide ligand generated by cathepsin S cleavage of PAR2. […] Our findings support a mechanism by which an N-terminal tethered ligand generated by cathepsin S cleavage might propagate PAR2 signaling in keratinocytes, or other target cells, surrounding a primary focus of inflammation. A possible scenario with respect to cutaneous inflammation could be as follows: IFN-γ, ...

Assay [2] concerns PAR2. Conditions: cited from earlier work; for PAR2 activation (in words): in vitro, plant proteases. The text has this:
PAR2 signaling has been implicated in the development of inflammatory and bowel diseases, asthma, itch and pain. The receptor is expressed on many types of cells including keratinocytes, sensory neurons, fibroblasts, endothelial cells, and inflammatory cells, [3]. Consistent with this broad expression, PAR2 is involved in numerous physiologic and pathophysiologic processes in response to both endogenous and exogenous proteases.

The subject of assay [3] is PKC (βII Ser660) phosphorylation in PAR2-transfected HeLa cells. The experiment in a line: Western blot for p-PKC (Ser660) in PAR2-transfected HeLa cells. The format is cell-based, human. Particulars: 10 minutes, room temperature; SLIGRL 10 µM, SLIGKVDGTS 10 µM, KVDGTS 100 µM, cathepsin S 1 µM. The protocol: HeLa cells were transfected with PAR2 plasmid DNA as described above. Untransfected HeLa cells were plated as a control. Forty-eight hours after transfection, cells were rinsed with PBS three times. Transfected HeLa cells were incubated with either SLIGRL (10 µM), SLIGKVDGTS (10 µM), KVDGTS (100 µM), or cathepsin S (1 µM) at room temperature for 10 minutes. Untransfected HeLa cells were treated with SLIGRL (10 µM) in a similar manner. A subset of transfected HeLa cells remained untreated and served as a negative control. After incubation, cells were harvested, pelleted and lysed by sequential freeze-thaw cycles. Cell lysates were centrifuged at 4°C for 15 minutes. Supernatants were collected and protein concentrations were determined by Bradford assay. Equal amounts of cell lysates were loaded onto NuPAGE Novex Bis-Tris mini gels, electrophoresed and transferred to nitrocellulose membranes using standard protocols. The blot was first probed with rabbit anti-phospho-PKC (βII Ser660) antibody (Cell Signalling Technology, Danvers, MA), and later reprobed with a mouse anti-actin antibody to identify the control actin band at 42 kDa. Primary antibodies were labeled with HRP-conjugated donkey anti-rabbit antibody and HRP-conjugated donkey anti-mouse antibody, respectively, followed by detection of the position of the antigen on the blot.
For orientation: In western blotting, separated proteins are transferred to a membrane and probed.

For assay [4], the system named is human PAR2. The experiment in a line: Fura-2 calcium imaging in HeLa cells transfected with PAR2 cDNA. It is filed as cell-based. Particulars: for Concentration-effect curve, calcium-dependent response (in words): peptides 1 nM - 1 mM, triplicate, Fura-2 ratiometric imaging. As for the experimental part: Human PAR2 cDNA was cloned as an Xho I-Hind III fragment (1206 bp) into pcDNA3.1(−). 10 µg of DNA were diluted into 0.5 ml of DMEM and mixed with 0.5 ml of DMEM containing 10 µl of Lipofectamine 2000 transfection reagent and incubated at room temperature for 20 minutes. HeLa cells were grown to confluence, trypsinized and 1×10^6 cells were pelleted in a 15 ml tube by centrifugation at 1000 rpm for 5 minutes. The DMEM-Lipofectamine 2000-DNA mixture (1 ml) was added to the cell pellet, resuspended gently and incubated at room temperature for 20 minutes. Four ml of complete DMEM with 10% FBS were added to the tube, mixed by inverting the tube several times, plated into a 96-well glass bottom plate at 20,000 cells/well, and placed in a 37°C CO2 incubator. HeLa cells transfected with vector alone or salmon sperm DNA (shown in the figures) were plated as a control. The medium was aspirated two days after transfection. Fura-2 was used as a ratiometric calcium-sensitive indicator as follows. 100 µl of complete DMEM containing 2 µM of Fura-2 were added to each well and left at room temperature in the dark for 1 hr. Following loading with Fura-2, the medium was aspirated and replaced with 90 µl of HEPES-buffered saline (20 mM HEPES, 115 mM NaCl, 5.4 mM KCl, 2 mM CaCl2, 0.8 mM MgCl2, 13.8 mM glucose, pH 7.4).
Imaging was performed using a Zeiss Axiovert 200 M microscope platform equipped with a flipping filter wheel for ratiometric imaging. Axiovision software, version 4.6 was used for image analysis of the cells which were excited at 340 nm and 380 nm. Ten µl of peptide agonist were added at 20 seconds after the start of the excitation procedure. Images were taken every 5 seconds, including at zero time, during a 3-minute period or longer if required. The software later analyzed all images taken during each excitation period. Typically, ratiometric changes were measured in 10–20 cells in each image. An average of the fluorescence of the cells in each image was calculated and plotted against time in seconds.
HeLa cells transfected with PAR2 cDNA were subjected to ratiometric imaging as described above with PAR2 peptides, SLIGRL, KVDGTS, and SLIGKVDGTS in addition to the reverse peptides LRGILS and STGDVK at concentrations from 1 nM - 1 mM. Each of the concentration-dependent readings was performed in triplicate. Maximum intensities at each of the dilutions were calculated and plotted against concentration using GraphPad/PRISM software version 6.0 (Irvine, CA). Error bars represent +/−SEM.

In assay [5] the test system is cathepsin S. The experiment in a line: Cathepsin S digestion of the human PAR2 N-terminal peptide (LC/MS/MS). It is filed as biochemical. Conditions: cathepsin S 1 µM, pH 7.0, 37°C, 20 minutes; MS/MS sequencing. The protocol:
Recombinant human cathepsin S was produced as follows. The human cathepsin S proprotein coding region was isolated by PCR using the forward and reverse primers […] CCTG and […] and a template of plasmid DNA containing the entire coding sequence of human cathepsin S. The PCR product was cut with Nco I and Xho I, and cloned into the pTYB4 expression vector from New England Biolabs for expression in E.coli. Cells were grown in LB medium induced with 0.3 mM IPTG, harvested by centrifugation, resuspended in lysis buffer A (0.5 M NaCl, 0.05 M Tris, 5 mM EDTA, pH 8.0) and lysed in a French press. The lysate was centrifuged and the protein was found predominantly in inclusion bodies which were dissolved in buffer B (10 mM DTT and 8 M urea), and refolded in the presence of buffer B containing 0.7 M L-arginine, 0.01 M glutathione, 0.001 M glutathione disulfide, and 0.005 M EDTA as described. […] The specific activity of cathepsin S was assayed using Z-VVR-AMC in fluorimetric and Z-FR-pNA in colorimetric assays[22] and determined to be 10,000 mU/mg protein.
A peptide comprising the N-terminus of PAR2, […], was dissolved in 50 mM Tris, pH 7.0, 0.1 M NaCl, 0.1 mM EDTA, and 0.01% Tween-20 to a concentration of 100 mM. […] The reaction samples were analyzed by the Harvard Microchemistry & Proteomics Analysis Facility (Cambridge, MA). […]

Assay [6] deals with PAR2. Particulars: cited from earlier work. An excerpt: Proteases can activate PARs but it has been hypothesized that they can also inactivate them. […] As the cathepsin S cleavage sites identified here are downstream o ...
The test system of assay [7] is human PAR2. The experiment in a line: IP1 (IP-One HTRF) assay in PAR2-transfected HeLa cells. It is filed as cell-based. Conditions: 1 hour, 37°C; KVDGTS 100 µM, SLIGRL 10 µM, cathepsin S 1 µM; KVDGTS and SLIGRL after subtracting baseline values; cathepsin S 'in this particular experiment'. The protocol:
To determine the effect of PAR2 activation on Gq stimulation, we measured IP1, a downstream metabolite of IP3, using the IP-One HTRF assay from Cis Bio, Medford, MA. HeLa cells were transfected with salmon sperm DNA or PAR2 cDNA as described above, plated in 10 cm culture dishes and incubated at 37°C with 5% CO2. After 24 hours, the cells were trypsinized, counted, plated into 96-well plates at 80,000 cells/well and incubated for another 24 hours. The medium was replaced with a stimulation buffer containing LiCl, per the instructions of the manufacturer. Ligands, including cathepsin S (1 µM), KVDGTS (100 µM) and SLIGRL (10 µM) were added to wells and incubated at 37°C for 1 hour and IP1 levels determined. This assay was performed on multiple wells containing each ligand on three occasions. Error bars represent SEM.
(In general: TR-FRET usually uses a lanthanide donor and a delayed reading to cut background.)

Entries after “also recorded” stand apart in the source; their conditions may differ.

Consider IFN-γ: mediator of inflammation, for which the “induction of cathepsin S (in words)” value in assay [1] is “potent inducer of cathepsin S in keratinocytes”. With ficin, the “PAR2 activation (in words)” value in assay [2] is “supporting activation”. Take “SLIGKVDGTS [decapeptide which encompasses SLIGKV and KVDGTS]”: the “PKC Ser660 phosphorylation (in words)” value in assay [3] is on record as “weaker effect”. The “Concentration-effect curve, calcium-dependent response (in words)” value in assay [4] was “curves for SLIGRL and SLIGKVDGTS overlapped; also recorded: activity comparable to that of SLIGRL”. As for “STGDVK [KVDGTS reverse peptide, reference compound]”, the “Concentration-effect curve, calcium-dependent response (in words)” value in assay [4] is on record as “not active”. In the case of KVDGTSHVTGKGVT, the “cleavage points (in words)” value in assay [5] was “next most common sequence results in G at the P1 position”. Regarding trypsin [reference compound], the “PAR2 cleavage site preference (in words)” value in assay [6] is “cleave PAR2 primarily following arginine residues”. The “effect as first agent on calcium response to second agent (in words)” value in assay [4] (PAR2-transfected HeLa, KVDGTS 100 µM, cathepsin S 2 µM, papain 2 µM, trypsin 10 nM, second agent after up to 60 minutes, room temperature) is on record as “failed to induce a calcium response at any time up to 60 minutes”. With “SLIGRL [positive control, reference compound]”, the “PKC Ser660 phosphorylation (in words)” value in assay [3] is “weaker effect”. Moreover, in assay [2] (primary keratinocytes and various cell lines, no reference given), the “intracellular calcium mobilization (in words)” value is given as “provokes transient intracellular calcium mobilization”. Further, the IP1 level in assay [7] was around 66 nM. Besides, the “calcium response to the substance as second agent after protease (in words)” value in assay [4] (PAR2-transfected HeLa, after cathepsin S, papain or trypsin, up to 60 minutes, room temperature) is listed as “failed to induce a calcium response at any time up to 60 minutes”. Also, in assay [4], the “Concentration-effect curve, calcium-dependent response (in words)” value is “curves for SLIGRL and SLIGKVDGTS overlapped”. Moreover, the “concentration at which active/effective” value in assay [4] (summary of these studies (discussion)) was 10 µM. For “LRGILS [reverse peptide of SLIGRL, negative control, reference compound]”, the “Concentration-effect curve, calcium-dependent response (in words)” value in assay [4] is “not active”. As to bromelain, in assay [2], the “PAR2 activation (in words)” value was “supporting activation”.
